# Experimental data as given in patent publication EP1927378A1, “Hair-treatment compositions comprising quercetin and use thereof to revitalize hair” (Henkel Kommanditgesellschaft auf Aktien, priority 2006, dated 2008).
# Tests used:
# Type in all cases: cell-based
# [1] = system: "Outer Root Sheath" Keratinozyten; experiment: Layer thickness of ORS keratinocytes in organotypic cell culture model (histology); details: 88 µM, 72 h
# Source text: Physiologische Effekte der Behandlung mit potentiellen Wirkstoffen hinsichtlich einer Verdickung des Haares kann anhand einer Steigerung der Schichtdicke der "Outer Root Sheath" Keratinozyten im organotypischen Zellkulturmodell bestimmt werden. Dazu werden jeweils drei Modelle nach 72 stündiger Inkubation mit Wirkstoff oder mit Referrenzmedium histologisch analysiert: Fixation in 4 % Paraformaldehyd, Färbung mittels Propidiumiodid und mikroskopische Analyse. Im Folgenden wird die Dicke der ORS Keratinozytenschicht des organptypischen Modells randomisiert vermessen und die Ergebnisse werden in Relation zur unbehandelten Kontrolle dargestellt. Tabelle 5: Steigerung der Schichtdicke nach Behandlung der organptypischen Zellkultur mit Dihydroquercetin in der Konzentration von 88 µM (entspricht Extrakt der Sibirischen Lerche von 0,003%) in % im Vergleich zur unbehandelte Probe
# IGFBP3 = experiment: Differential gene expression by quantitative RT-PCR in dermal papilla cells: IGFBP3; details: for Expression IGFBP3, Mittelwert: 24 h, untreated control = 1, spread in brackets
# Source text: (§1) Hepatocyte Growth Factor (HGF) und Keratinocyte Growth Factor (KGF) sind wichtige Wachstumsfaktoren, die von den dermalen Papillenzellen synthetisiert werden. Im Speziellen stimuliert HGF das Follikelwachstum und KGF die Keratinozytenproliferation. Entsprechend werden HGF und KGF in der Wachstumsphase vermehrt exprimiert. Diesen Eigenschaften gegenüber steht die Expression von IGFBP-3. Dieses Genprodukt führen zu einer Verschiebung des Zyklus von der Wachstums- zur Regressionsphase. Nach Applikation von Substanzen, die Effekte am biologisch aktiven Teil des Haares hervorrufen, könnte die Bestimmung der Veränderungen der Expression dieser Gene Aussagen über Haarwuchsstimulantien oder -inhibitoren liefern. Die differentielle Genexpression wurde mittels quantitatitiver RT-PCR (Reverse-Transkription Polymerase Kettenreaktion) bestimmt. Nach Anzucht der dermalen Papillenzellen wurden diese für 24 h mit Dihydroquercetin in der Konzentration von 8,8 und 88 µM (entspricht Extrakt der Sibirischen Lerche von 0,003% und 0,0003%) inkubiert. Zur Durchführung der PCR wird zunächst mit Hilfe des RNeasy Mini Kits der Fa. Qiagen die RNA aus den dermalen Papillenzellen isoliert und mittels reverser Transkription in cDNA umgeschrieben. Bei der anschließenden PCR Reaktion, die mit Hilfe genspezifischer Primer für die jeweiligen haarrelevanten Gene durchgeführt wird und die der Amplifikation der gesuchten Genabschnitte dient, wird die Bildung der PCR-Produkte online über ein Fluoreszenzsignal detektiert. Das Fluoreszenzsignal ist dabei proportional zur Menge des gebildeten PCR-Produktes. Je stärker die Expression eines bestimmten Gens ist, desto größer ist die Menge an gebildetem PCR-Produkt und um so höher ist das Fluoreszenzsignal. Zur Quantifizierung der Genexpression wird die unbehandelte Kontrolle gleich 1 gesetzt und die Expression der zu bestimmenden Gene darauf bezogen (x-fache Expression). Dabei werden Werte, die größer/gleich der 2fachen Expression oder kleiner/gleich der 0.5fachen Expression der unbehandelten Kontrolle sind als signifikant differentiell exprimiert eingestuft. […]
# hHa3-I = experiment: Hair keratin expression by quantitative real-time PCR in organotypic cell cultures: hHa3-I; details: 88 µM, 24 h after application
# Source text: (§2) Hepatocyte Growth Factor (HGF) und Keratinocyte Growth Factor (KGF) sind wichtige Wachstumsfaktoren, die von den dermalen Papillenzellen synthetisiert werden. Im Speziellen stimuliert HGF das Follikelwachstum und KGF die Keratinozytenproliferation. Entsprechend werden HGF und KGF in der Wachstumsphase vermehrt exprimiert. Diesen Eigenschaften gegenüber steht die Expression von IGFBP-3. Dieses Genprodukt führen zu einer Verschiebung des Zyklus von der Wachstums- zur Regressionsphase. […] Die differentielle Genexpression wurde mittels quantitatitiver RT-PCR (Reverse-Transkription Polymerase Kettenreaktion) bestimmt. […] Zur Quantifizierung der Genexpression wird die unbehandelte Kontrolle gleich 1 gesetzt und die Expression der zu bestimmenden Gene darauf bezogen (x-fache Expression). […]
# (§3) Die Festigkeit der Haare und die Haarstruktur ist im Wesentlichen von der Zusammensetzung spezieller haarspezifischer Strukturproteine abhängig, den Haarkeratinen. […] Die Expression verschiedener Haarkeratine organotypischen Modellen kann mit Hilfe des in Beispiel 8 beschriebenen quantitativen Real-Time-PCR-Verfahrens untersucht werden. Zur Quantifizierung der Genexpression wird die Lösungsmittelkontrolle gleich 1 gesetzt und die Expression der zu bestimmenden Gene darauf bezogen (x-fache Expression). […]
# KGF [2] = experiment: Differential gene expression by quantitative RT-PCR in dermal papilla cells: KGF; details: for Expression KGF, Mittelwert: 24 h, untreated control = 1, spread in brackets
# Source text: as §1
# HGF [3] = experiment: HGF release into medium (ELISA) from organotypic hair follicle cell cultures; details: 88 µM
# Source text: (§4) Hepatocyte Growth Factor (HGF) und Keratinocyte Growth Factor (KGF) sind wichtige Wachstumsfaktoren, die von der dermalen Papille ausgeschüttet werden, um die Proliferation der Haarschaftkeratinozyten, die für die Synthese der Haarkeratine verantwortlich sind, zu steuern. Sie sind außerdem charakteristische Marker für die Anagenphase, in der auch die Keratinsynthese maximal ist. Darüber hinaus ist zu beachten, dass bei der Haaralterung das Proliferationsvermögen der Haarfollikelzellen abnimmt. Die Ausschüttung von HGF sowie KGF kann mit Hilfe von kommerziell erhältlichen ELISA-Kits quantifiziert werden. Dazu werden organotypische Haarfollikelzellkulturen über 72h mit Dihydroquercetin in der Konzentration 88 µM (entspricht Extrakt der Sibirischen Lerche von 0,003%) inkubiert und die Konzentration der Wachstumsfaktoren im Medium in beschriebener Weise bestimmt. Tabelle 4: Relative Ausschüttung von HGF und KGF in [%] nach Behandlung von organotypischen Haarfollikelzellkulturen im Vergleich zu unbehandelten Kontrollen.
# HGF [4] = experiment: Differential gene expression by quantitative RT-PCR in dermal papilla cells: HGF; details: for Expression HGF, Mittelwert: 24 h, untreated control = 1, spread in brackets
# Source text: as §1
# [5] = system: organotypischen Zellkulturen; experiment: ATP production (ATPLite-M luminescence assay) in organotypic cell cultures; details: 24 h
# Source text: ATP (Adenosintriphosphat) ist die universelle Speicherform für chemische Energie in Zellen. Bei der Abspaltung der distalen Phosphatgruppe entsteht ADP und Pi (anorganisches Phosphat). Diese Reaktion ist stark exergon, d.h. es wird Energie frei. Produziert wird ATP beim zellulären, oxidativen Abbau von Fetten, Kohlehydraten und Proteinen. Es dient als Energielieferant für biochemische Synthesen, für Transportvorgänge (aktiver Transport) und für mechanische Arbeit. Diese Vorgänge sind endergon, d.h. sie laufen nur unter Energiezufuhr ab. Um ihren Stoffwechsel optimal aufrecht zu erhalten, sind Zellen also auf eine ausreichende Versorgung mit ATP angewiesen. Auch dermale Papillenzellen benötigen beispielsweise zur Produktion von Wachstumsfaktoren und damit zur Steuerung des Haarzyklus ATP. Die Proliferation und Differenzierung von Haarschaftkeratinozyten ist ebenfalls an die ATP-Synthese gekoppelt, da für beide Vorgänge die Biosynthese spezifischer Proteine essentielle Voraussetzung ist. Kann durch ein Produkt die ATP-Syntheserate der haarrelevanten Zellen erhöht werden, so steht den Zellen mehr Energie zur Verfügung um Stoffwechselvorgänge und zelluläre Strukturen aufrecht zu erhalten, und um Strukturen zu erneuern, z.B. bei Reparaturprozessen oder dem Neuaufbau von Haaren.
# Die ATP-Bestimmungen erfolgten mit Hilfe des ATPLiteTM-M Assays (Packard). […]
# hHa4 = experiment: Hair keratin expression by quantitative real-time PCR in organotypic cell cultures: hHa4; details: 88 µM, 24 h after application
# Source text: as §2, §3
# KGF [6] = experiment: KGF release into medium (ELISA) from dermal papilla cells; details: for Relative Ausschüttung von KGF, Mittelwert [%]: 24 h, untreated sample = 100, spread in brackets
# Method: Der Keratinozyten Wachstumsfaktor Factor (KGF) ist ein äußerst wichtiger Regulator des Haars. Bei einer potentiell wachstumsfördernden und das Haar stärkenden Aktivsubstanz kann von einer Steigerung der ins Medium ausgeschütteten Faktoren ausgegangen werden. Die Ausschüttung von KGF kann mit Hilfe von kommerziell erhältlichen ELISA-Kits quantifiziert werden. Dazu wurden die dermalen Papillenzellen über 24 Stunden mit Dihydroquercetin in der Konzentration von 8,8 und 88 µM (entspricht Extrakt der Sibirischen Lerche von 0,003% und 0,0003%) inkubiert und die Konzentration des Wachstumsfaktors im Medium in beschriebener Weise quantifiziert. Tabelle 3: Relative Ausschüttung von KGF in [%] nach Behandlung der dermalen Papillenzellen im Vergleich zur unbehandelten Probe.
# KGF [7] = experiment: KGF release into medium (ELISA) from organotypic hair follicle cell cultures; details: 88 µM
# Source text: as §4
# [8] = dermal papilla cells, 24 h treatment
# [9] = control = 1, spread in brackets
# [10] = organotypic hair follicle cell cultures, 72 h, untreated control = 100, spread in brackets
structure (smiles),measurement,setting,value
"O=C1c2c(O)cc(O)cc2OC(c2ccc(O)c(O)c2)C1O (stereo not drawn) [Dihydroquercetin, 2-(3.4-dihyrdroxy-phenyl)-3 5 7-trihydroxy-chroman-4-one]",Steigerung der ORS Keratinozytenschichtdicke,[1]; called tendential,11%
same,"Schichtdicke in % im Vergleich zur unbehandelte Probe, Mittelwert","[1]; control = 100, spread in brackets",111 (4) %
same,"Expression IGFBP3, Mittelwert","IGFBP3; dermal papilla cells, 88 µM","0,63(0,13) x-fache Expression"
same,"Expression IGFBP3, Mittelwert","IGFBP3; dermal papilla cells, 8,8 µM","0,72 (0,04) x-fache Expression"
same,Genexpression von IGFBP-3 (result in words),IGFBP3; [8],tendenziellen verminderten Expression
same,Keratinexpression hHa3-I (result in words),hHa3-I,Steigerung der Keratinexpression
same,Haarkeratinexpression hHa3-I,hHa3-I; [9],"4,1 (1,5) x-fache Expression"
same,"Expression KGF, Mittelwert","KGF [2]; dermal papilla cells, 88 µM","2,18 (0,27) x-fache Expression"
same,"Expression KGF, Mittelwert","KGF [2]; dermal papilla cells, 8,8 µM","2,71 (0,36) x-fache Expression"
same,Genexpression von KGF (result in words),KGF [2]; [8],signifikanten Induktion
same,"Relative Ausschüttung von HGF, Mittelwert [%]",HGF [3]; [10],142 (15) %
same,Freisetzung des Hepatozyten Wachstumsfaktor (HGF) (result in words),HGF [3]; organotypic hair model,erhöhte Freisetzung
same,"Expression HGF, Mittelwert","HGF [4]; dermal papilla cells, 88 µM","3,62(2,11) x-fache Expression"
same,"Expression HGF, Mittelwert","HGF [4]; dermal papilla cells, 8,8 µM","2,90 (1,18) x-fache Expression"
same,Genexpression von HGF (result in words),HGF [4]; [8],tendenziell
same,"ATP-Produktion von organotypischen Zellkulturen in %, Mittelwert (Standardabweichung)","[5]; 88 µM (= 0,003% Extrakt der Sibirischen Lerche), untreated sample = 100",138 (10) %
same,Steigerung der ATP-Produktion gegenüber der unbehandelten Kontrolle,"[5]; organotypic cell cultures, 88 µM",38%
same,Keratinexpression hHa4 (result in words),hHa4,Steigerung der Keratinexpression
same,Haarkeratinexpression hHa4,hHa4; [9],"4,1 (1,6) x-fache Expression"
same,"Relative Ausschüttung von KGF, Mittelwert [%]","KGF [6]; dermal papilla cells, 88 µM","176 (16,7) %"
same,"Relative Ausschüttung von KGF, Mittelwert [%]","KGF [6]; dermal papilla cells, 8,8 µM","173 (17,6) %"
same,Freisetzung von KGF (result in words),"KGF [6]; dermal papilla cells, 8,8 and 88 µM",signifikant erhöhten Freisetzung
same,"Relative Ausschüttung von KGF, Mittelwert [%]",KGF [7]; [10],126 (7) %
same,Freisetzung von KGF (result in words),KGF [7]; organotypic hair model,Aktivierung der Freisetzung
